Drawing on ChEMBL document CHEMBL1140968, “QSAR, action mechanism and molecular design of flavone and isoflavone derivatives with cytotoxicity against HeLa” (2008), this text covers GC50 and pGC50 for 32 compounds.

The assay concerns HeLa. The assay is described as follows: Cytotoxicity against human HeLa cells. In kind it is functional.
With `CO/N=C(/COc1ccc2oc(-c3ccccc3)cc(=O)c2c1)c1ccc(OC)cc1`, the GC50 was found to be 2 µM and the pGC50 amounted to 5.699.

`CO/N=C(\C)COc1ccc2c(=O)c(-c3ccccc3)coc2c1`: the GC50 was 8.5 µM and the pGC50 was 5.071.

The compound `O=c1c(OC/C(=N/O)c2ccccc2)c(-c2ccccc2)oc2ccccc12` had a GC50 of 1.8 µM and a pGC50 of 5.745.

`O=c1c(OC/C(=N/O)c2ccc(F)cc2)c(-c2ccccc2)oc2ccccc12`: the GC50 came out at 2.1 µM and the pGC50 came out at 5.678.

The compound `C/C(COc1c(-c2ccccc2)oc2ccccc2c1=O)=N\O` gave a GC50 of 2 µM and a pGC50 of 5.699.

On to `CO/N=C(\C)COc1c(-c2ccccc2)oc2ccccc2c1=O`, for which the GC50 came out at 2 µM and the pGC50 stood at 5.699.

For the compound `CO/N=C(\C)COc1ccc2oc(-c3ccccc3)cc(=O)c2c1`, the GC50 is 0.9 µM and the pGC50 is 6.046.

Turning to `CO/N=C(\C)COc1ccc2c(=O)cc(-c3ccccc3)oc2c1`, the GC50 worked out at 2.2 µM and the pGC50 was 5.658.

Regarding `C/C(COc1ccc2oc(-c3ccccc3)cc(=O)c2c1)=N\O`, the GC50 worked out at 1.2 µM and the pGC50 turned out to be 5.921.

Regarding `C/C(COc1ccc2c(=O)c(-c3ccccc3)coc2c1)=N\O`, the GC50 worked out at 9.8 µM and the pGC50 is listed as 5.009.

For `O=c1cc(-c2ccccc2)oc2ccc(OC/C(=N/O)c3ccccc3)cc12`, the GC50 is 0.8 µM and the pGC50 is recorded as 6.097.

The compound `O=c1cc(-c2ccccc2)oc2ccc(OC/C(=N/O)c3ccc(F)cc3)cc12` registered a GC50 of 1.6 µM and a pGC50 of 5.796.

Compound `O=c1cc(-c2ccccc2)oc2cc(OC/C(=N/O)c3ccccc3)ccc12` gave a GC50 of 2 µM and a pGC50 of 5.699.

`CO/N=C(/COc1c(-c2ccccc2)oc2ccccc2c1=O)c1ccc(F)cc1` showed a GC50 of 2 µM and a pGC50 of 5.699.

For the compound `CO/N=C(/COc1c(-c2ccccc2)oc2ccccc2c1=O)c1ccc(OC)cc1`, the GC50 was 2 µM and the pGC50 is recorded as 5.699.

Take `CO/N=C(/COc1ccc2oc(-c3ccccc3)cc(=O)c2c1)c1ccc(F)cc1`: the GC50 turned out to be 2.3 µM and the pGC50 was found to be 5.638.

On to `O=c1cc(-c2ccccc2)oc2cc(OC/C(=N/O)c3ccc(F)cc3)ccc12`, for which the GC50 stood at 2 µM and the pGC50 stood at 5.699.

For `CO/N=C(/COc1ccc2c(=O)c(-c3ccccc3)coc2c1)c1ccccc1`, the GC50 came to 8.2 µM and the pGC50 stood at 5.086.

`COc1ccc(/C(COc2ccc3c(=O)cc(-c4ccccc4)oc3c2)=N\O)cc1` returned a GC50 of 2 µM and a pGC50 of 5.699.

`O=c1c(-c2ccccc2)coc2cc(OC/C(=N/O)c3ccccc3)ccc12` registered a GC50 of 9 µM and a pGC50 of 5.046.

Consider `CO/N=C(/COc1c(-c2ccccc2)oc2ccccc2c1=O)c1ccccc1`, for which the GC50 came out at 1.6 µM and the pGC50 is reported as 5.796.

For `CO/N=C(/COc1ccc2c(=O)cc(-c3ccccc3)oc2c1)c1ccccc1`, the GC50 is 6.6 µM and the pGC50 amounted to 5.18.

In the case of `CO/N=C(/COc1ccc2c(=O)cc(-c3ccccc3)oc2c1)c1ccc(F)cc1`, the GC50 worked out at 2.7 µM and the pGC50 worked out at 5.569.

Compound `CO/N=C(/COc1ccc2c(=O)cc(-c3ccccc3)oc2c1)c1ccc(OC)cc1` had a GC50 of 2.5 µM and a pGC50 of 5.602.

For the compound `CO/N=C(/COc1ccc2c(=O)c(-c3ccccc3)coc2c1)c1ccc(F)cc1`, the GC50 was 6.4 µM and the pGC50 came out at 5.194.

For the compound `CO/N=C(/COc1ccc2c(=O)c(-c3ccccc3)coc2c1)c1ccc(OC)cc1`, the GC50 was found to be 7.3 µM and the pGC50 was 5.137.

In turn, `O=c1c(-c2ccccc2)coc2cc(OC/C(=N/O)c3ccc(F)cc3)ccc12` gave a GC50 of 7.8 µM and a pGC50 of 5.108.

Take `C/C(COc1ccc2c(=O)cc(-c3ccccc3)oc2c1)=N\O`: the GC50 turned out to be 2 µM and the pGC50 was found to be 5.699.

Consider `COc1ccc(/C(COc2ccc3oc(-c4ccccc4)cc(=O)c3c2)=N\O)cc1`, for which the GC50 turned out to be 1 µM and the pGC50 came to 6.

On to `CO/N=C(/COc1ccc2oc(-c3ccccc3)cc(=O)c2c1)c1ccccc1`, for which the GC50 was 2.4 µM and the pGC50 is on record as 5.62.

In turn, `COc1ccc(/C(COc2ccc3c(=O)c(-c4ccccc4)coc3c2)=N\O)cc1` had a GC50 of 7.6 µM and a pGC50 of 5.119.

Compound `COc1ccc(/C(COc2c(-c3ccccc3)oc3ccccc3c2=O)=N\O)cc1` had a GC50 of 2 µM and a pGC50 of 5.699.
